Reference: PubChem BioAssay AID2060485 (Molecular Pharmacology Branch, DTP, NCI, 2025)

Tested on: A375 multi-cell spheroids with HUVEC/MSC, viability
Assay: Anticancer human tumor A375 cell line growth inhibition [GQUAD];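 also: spheroids exposed to compounds for seven days before readout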
Details: for IC50: curve of first compound; for viability, T/C: stronger effect = lower value
How it was run: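 Multi-cell-type spheroids of tumor cells with HUVEC and mesenchymal stem cells, treated with drug combinations. Concentrations descend in half-log steps from near clinical Cmax, or from 10 microM where Cmax is unknown; viability read-out.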

SMILES: Cc1[nH]c2ccccc2c1CCNCc1ccc(/C=C/C(=O)NO)cc1 + Cc1[nH]c2ccc(F)cc2c1-c1nc2c3cccnc3c3ncccc3c2[nH]1
- IC50 (second compound 0.0316 µM): 153 nM
- IC50 (second compound 0.1 µM): 150 nM
- IC50 (second compound 0.316 µM): 152 nM
- IC50 (second compound 1 µM): 138 nM
- IC50 (second compound 3.16 µM): 60.6 nM
- IC50 (second compound 10 µM): 95.8 nM
- viability, T/C (second compound 0.0316 µM, first compound 0.000999 µM): 102%
- viability, T/C (second compound 0.0316 µM, first compound 0.00316 µM): 108%
- viability, T/C (second compound 0.0316 µM, first compound 0.00999 µM): 115%
- viability, T/C (second compound 0.0316 µM, first compound 0.0316 µM): 112%
- viability, T/C (second compound 0.0316 µM, first compound 0.0999 µM): 73.4%
- viability, T/C (second compound 0.0316 µM, first compound 0.316 µM): 10.5%
- viability, T/C (second compound 0.1 µM, first compound 0.000999 µM): 105%
- viability, T/C (second compound 0.1 µM, first compound 0.00316 µM): 109%
- viability, T/C (second compound 0.1 µM, first compound 0.00999 µM): 110%
- viability, T/C (second compound 0.1 µM, first compound 0.0316 µM): 124%
- viability, T/C (second compound 0.1 µM, first compound 0.0999 µM): 72%
- viability, T/C (second compound 0.1 µM, first compound 0.316 µM): 9.67%
- viability, T/C (second compound 0.316 µM, first compound 0.000999 µM): 110%
- viability, T/C (second compound 0.316 µM, first compound 0.00316 µM): 98.1%
- viability, T/C (second compound 0.316 µM, first compound 0.00999 µM): 118%
- viability, T/C (second compound 0.316 µM, first compound 0.0316 µM): 116%
- viability, T/C (second compound 0.316 µM, first compound 0.0999 µM): 72.4%
- viability, T/C (second compound 0.316 µM, first compound 0.316 µM): 10.8%
- viability, T/C (second compound 1 µM, first compound 0.000999 µM): 98%
- viability, T/C (second compound 1 µM, first compound 0.00316 µM): 103%
- viability, T/C (second compound 1 µM, first compound 0.00999 µM): 113%
- viability, T/C (second compound 1 µM, first compound 0.0316 µM): 106%
- viability, T/C (second compound 1 µM, first compound 0.0999 µM): 65.9%
- viability, T/C (second compound 1 µM, first compound 0.316 µM): 8.42%
- viability, T/C (second compound 3.16 µM, first compound 0.000999 µM): 76.4%
- viability, T/C (second compound 3.16 µM, first compound 0.00316 µM): 78.5%
- viability, T/C (second compound 3.16 µM, first compound 0.00999 µM): 81.9%
- viability, T/C (second compound 3.16 µM, first compound 0.0316 µM): 86%
- viability, T/C (second compound 3.16 µM, first compound 0.0999 µM): 26.4%
- viability, T/C (second compound 3.16 µM, first compound 0.316 µM): 5.39%
- viability, T/C (second compound 10 µM, first compound 0.000999 µM): 86%
- viability, T/C (second compound 10 µM, first compound 0.00316 µM): 93%
- viability, T/C (second compound 10 µM, first compound 0.00999 µM): 98.3%
- viability, T/C (second compound 10 µM, first compound 0.0316 µM): 92.2%
- viability, T/C (second compound 10 µM, first compound 0.0999 µM): 48.4%
- viability, T/C (second compound 10 µM, first compound 0.316 µM): 5.49%
